Assay results as given in patent US20060069132A1, “Azolecarboxamide herbicides” (priority 2004, published 2006).

Assays:
barnyardgrass [1] = assay: Test B flooded paddy test; type: in vivo, Echinochloa crus-galli; conditions: 1000 g ai/ha, scale 0 to 100 (0 no effect, 100 complete control)
In short: (§1)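 Scale 0–100: zero equals no visible effect, 100 complete control, judged by eye relative to controls. Timing: 13 to 15 days in greenhouse post-treatment. Growth stage at spraying: two leaves (paddy) or one to four leaves, 2–18 cm (postemergence).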

rice [2] = assay: Test B flooded paddy test; type: in vivo, Oryza sativa; conditions: 1000 g ai/ha, scale 0 to 100 (0 no effect, 100 complete control)
In short: (§2)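 Greenhouse test; postemergence application to plants at 1–4 leaves (2–18 cm); paddy species at 2 leaves; evaluated visually vs controls at 13–15 days; scale 0–100 (100 = complete control).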

lambsquarters = assay: Test B pre-/postemergence herbicide test; type: in vivo, Chenopodium album; conditions: for Lambsquarters plant response rating: postemergence
In short: (§3)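 Greenhouse pot assay with simultaneous preemergence (treated seed) and postemergence (2–18 cm seedlings) applications of surfactant-containing, non-phytotoxic solvent formulations. Response scored visually 13–15 days later on a 0–100 scale, 100 meaning complete control.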

redroot pigweed = assay: Test A pre-/postemergence herbicide test; type: in vivo, Amaranthus retroflexus
In short: (§4)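 Seeds sown in sandy loam received a preemergence directed soil spray of compound in non-phytotoxic solvent with surfactant; postemergence plants (2–10 cm, one- to two-leaf stage) were sprayed to runoff at the same time. After ~10 days in greenhouse, injury was rated visually versus untreated controls (0 = no effect, 100 = complete control).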

wild oat = assay: Test B postemergence herbicide test; type: in vivo, Avena fatua; conditions: postemergence
In short: as §2

giant foxtail [3] = assay: Test B pre-/postemergence herbicide test; type: in vivo, Setaria faberi; conditions: for Foxtail, Giant plant response rating: postemergence
In short: as §3

cocklebur = assay: Test B pre-/postemergence herbicide test; type: in vivo, Xanthium strumarium; conditions: for Cocklebur plant response rating: postemergence
In short: (§5)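 Formulation: non-phytotoxic solvent mix with surfactant. Timing: preemergence on seed and postemergence on 2–18 cm plants, applied concurrently. Readout after 13–15 d greenhouse: visual 0–100 control rating against controls.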

giant foxtail [4] = assay: Test A pre-/postemergence herbicide test; type: in vivo, Setaria faberi
In short: as §4

rice [5] = assay: Test B pre-/postemergence herbicide test; type: in vivo, Oryza sativa; conditions: 0 = no effect, 100 = complete control, preemergence
In short: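 Species tested were Echinochloa crus-galli, Ipomoea coccinea, Xanthium strumarium and Oryza sativa, treated both before emergence and at the 1- to 4-leaf stage; rice and barnyardgrass were also tested under flooding at 2 leaves. Greenhouse incubation lasted 13–15 days before visual 0–100 scoring.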

velvetleaf [6] = assay: Test A pre-/postemergence herbicide test; type: in vivo, Abutilon theophrasti
In short: as §4

Surinam grass = assay: Test B pre-/postemergence herbicide test; type: in vivo, Urochloa decumbens; conditions: for Surinam Grass plant response rating: postemergence
In short: as §3

ducksalad = assay: Test B flooded paddy test; type: in vivo, Heteranthera limosa; conditions: 1000 g ai/ha, scale 0 to 100 (0 no effect, 100 complete control)
In short: as §1

large crabgrass [7] = assay: Test A pre-/postemergence herbicide test; type: in vivo, Digitaria sanguinalis
In short: as §4

[8] = tested on: small flower umbrella sedge; assay: Test B flooded paddy test; type: in vivo, Cyperus difformis; conditions: 1000 g ai/ha, scale 0 to 100 (0 no effect, 100 complete control)
In short: as §1

barnyardgrass [9] = assay: Test B pre-/postemergence herbicide test; type: in vivo, Echinochloa crus-galli; conditions: for Barnyardgrass plant response rating: postemergence
In short: as §5

corn = assay: Test B pre-/postemergence herbicide test; type: in vivo, Zea mays; conditions: for Corn plant response rating: postemergence
In short: as §3

velvetleaf [10] = assay: Test B pre-/postemergence herbicide test; type: in vivo, Abutilon theophrasti; conditions: for Velvetleaf plant response rating: postemergence
In short: as §3

pigweed = assay: Test B pre-/postemergence herbicide test; type: in vivo, Amaranthus retroflexus; conditions: for Pigweed plant response rating: postemergence
In short: as §3

blackgrass = assay: Test B postemergence herbicide test; type: in vivo, Alopecurus myosuroides; conditions: postemergence
In short: as §1

barnyardgrass [11] = assay: Test A pre-/postemergence herbicide test; type: in vivo, Echinochloa crus-galli
In short: as §4

morningglory [12] = assay: Test B pre-/postemergence herbicide test; type: in vivo, Ipomoea coccinea; conditions: for Morningglory plant response rating: postemergence
In short: as §5

large crabgrass [13] = assay: Test B pre-/postemergence herbicide test; type: in vivo, Digitaria sanguinalis; conditions: for Crabgrass, Large plant response rating: postemergence
In short: as §3

wheat = assay: Test B postemergence herbicide test; type: in vivo, Triticum aestivum; design: key to Wheat plant response rating: 0 = no effect, 100 = complete control; conditions: postemergence
In short: as §2

morningglory [14] = assay: Test A pre-/postemergence herbicide test; type: in vivo, Ipomoea spp.
In short: as §4

[15] = 125 g ai/ha, 0 = no effect, 100 = complete control, preemergence
[16] = 500 g ai/ha, visual rating, 0 = no effect, 100 = complete control, preemergence
[17] = 125 g ai/ha, visual rating, scale 0 (no effect) to 100 (complete control)
[18] = 500 g ai/ha, scale 0 to 100, 0 is no effect, 100 is complete control
[19] = Postemergence, 500 g ai/ha, 0 to 100 scale, 0 no effect, 100 complete control
[20] = Postemergence, 2000 g ai/ha, 0 to 100 scale, 0 no effect, 100 complete control
[21] = Preemergence, 2000 g ai/ha, visual rating, 0 to 100 scale (0 no effect, 100 complete control)
[22] = preemergence, 500 g ai/ha, visual injury, 0 to 100 scale (0 no effect, 100 complete control)

Q: For `CCn1nc(C(C)(C)C)cc1C(=O)Nc1cc(C(N)=O)ccc1F` [Compound 271], which “Barnyardgrass plant response rating” value (barnyardgrass [1]) is on record?
A: 0

Q: What about the “Rice plant response rating” value (rice [2]) of the same compound?
A: 20

Q: And the “Lambsquarters plant response rating (0 to 100 scale)” value (lambsquarters; [15])?
A: 0

Q: And the “Plant response rating, Lambsquarters” value (lambsquarters; [16])?
A: 60

Q: And the “Lambsquarters plant response rating” value (lambsquarters; [17])?
A: 10

Q: And the “Lambsquarters plant response rating” value (lambsquarters; [18])?
A: 60

Q: What about the “Pigweed plant response rating” value (redroot pigweed; [19]) of the same compound?
A: 45

Q: What about the “Plant response rating, Pigweed” value (redroot pigweed; [20]) of the same compound?
A: 90

Q: What about the “Pigweed plant response rating” value (redroot pigweed; [21]) of the same compound?
A: 60

Q: And the “Pigweed plant response rating” value (redroot pigweed; [22])?
A: 60

Q: What about the “Oat, Wild plant response rating” value (wild oat; [17]) of the same compound?
A: 20

Q: What about the “Oat, Wild plant response rating” value (wild oat; [18]) of the same compound?
A: 30

Q: What about the “Foxtail, Giant plant response rating (0 to 100 scale)” value (giant foxtail [3]; [15]) of the same compound?
A: 0

Q: And the “Plant response rating, Foxtail, Giant” value (giant foxtail [3]; [16])?
A: 0

Q: What about the “Foxtail, Giant plant response rating” value (giant foxtail [3]; [17]) of the same compound?
A: 0

Q: What about the “Foxtail, Giant plant response rating” value (giant foxtail [3]; [18]) of the same compound?
A: 0

Q: And the “Cocklebur plant response rating (0 to 100 scale)” value (cocklebur; [15])?
A: 0

Q: And the “Plant response rating, Cocklebur” value (cocklebur; [16])?
A: 0

Q: What about the “Cocklebur plant response rating” value (cocklebur; [17]) of the same compound?
A: 0

Q: What about the “Cocklebur plant response rating” value (cocklebur; [18]) of the same compound?
A: 0

Q: What about the “Foxtail, Giant plant response rating” value (giant foxtail [4]; [19]) of the same compound?
A: 10

Q: What about the “Plant response rating, Foxtail, Giant” value (giant foxtail [4]; [20]) of the same compound?
A: 20

Q: What about the “Foxtail, Giant plant response rating” value (giant foxtail [4]; [21]) of the same compound?
A: 70

Q: What about the “Foxtail, Giant plant response rating” value (giant foxtail [4]; [22]) of the same compound?
A: 0

Q: And the “Rice plant response rating (0 to 100 scale)” value (rice [5]; 125 g ai/ha)?
A: 0

Q: And the “Plant response rating, Rice” value (rice [5]; 500 g ai/ha, visual rating)?
A: 0

Q: And the “Velvetleaf plant response rating” value (velvetleaf [6]; [19])?
A: 10

Q: What about the “Plant response rating, Velvetleaf” value (velvetleaf [6]; [20]) of the same compound?
A: 40

Q: What about the “Velvetleaf plant response rating” value (velvetleaf [6]; [21]) of the same compound?
A: 5

Q: And the “Velvetleaf plant response rating” value (velvetleaf [6]; [22])?
A: 0

Q: And the “Surinam Grass plant response rating (0 to 100 scale)” value (Surinam grass; [15])?
A: 0

Q: And the “Plant response rating, Surinam Grass” value (Surinam grass; [16])?
A: 0

Q: What about the “Surinam Grass plant response rating” value (Surinam grass; [17]) of the same compound?
A: 0

Q: What about the “Surinam Grass plant response rating” value (Surinam grass; [18]) of the same compound?
A: 0

Q: And the “Ducksalad plant response rating” value (ducksalad)?
A: 40

Q: And the “Crabgrass, Large plant response rating” value (large crabgrass [7]; [19])?
A: 10

Q: What about the “Plant response rating, Crabgrass, Large” value (large crabgrass [7]; [20]) of the same compound?
A: 10

Q: What about the “Crabgrass, Large plant response rating” value (large crabgrass [7]; [21]) of the same compound?
A: 15

Q: And the “Crabgrass, Large plant response rating” value (large crabgrass [7]; [22])?
A: 0

Q: What about the “Sedge, Umbrella plant response rating” value [8] of the same compound?
A: 40

Q: And the “Barnyardgrass plant response rating (0 to 100 scale)” value (barnyardgrass [9]; [15])?
A: 0

Q: And the “Plant response rating, Barnyardgrass” value (barnyardgrass [9]; [16])?
A: 0

Q: And the “Barnyardgrass plant response rating” value (barnyardgrass [9]; [17])?
A: 0

Q: What about the “Barnyardgrass plant response rating” value (barnyardgrass [9]; [18]) of the same compound?
A: 0

Q: And the “Corn plant response rating (0 to 100 scale)” value (corn; [15])?
A: 0

Q: And the “Plant response rating, Corn” value (corn; [16])?
A: 10

Q: What about the “Corn plant response rating” value (corn; [17]) of the same compound?
A: 0

Q: And the “Corn plant response rating” value (corn; [18])?
A: 20

Q: What about the “Velvetleaf plant response rating (0 to 100 scale)” value (velvetleaf [10]; [15]) of the same compound?
A: 0

Q: And the “Plant response rating, Velvetleaf” value (velvetleaf [10]; [16])?
A: 0

Q: What about the “Velvetleaf plant response rating” value (velvetleaf [10]; [17]) of the same compound?
A: 0

Q: And the “Velvetleaf plant response rating” value (velvetleaf [10]; [18])?
A: 0

Q: And the “Pigweed plant response rating (0 to 100 scale)” value (pigweed; [15])?
A: 0

Q: And the “Plant response rating, Pigweed” value (pigweed; [16])?
A: 20

Q: And the “Pigweed plant response rating” value (pigweed; [17])?
A: 50

Q: And the “Pigweed plant response rating” value (pigweed; [18])?
A: 80

Q: What about the “Blackgrass plant response rating” value (blackgrass; [17]) of the same compound?
A: 10

Q: What about the “Blackgrass plant response rating” value (blackgrass; [18]) of the same compound?
A: 20

Q: What about the “Barnyardgrass plant response rating” value (barnyardgrass [11]; [19]) of the same compound?
A: 10

Q: What about the “Plant response rating, Barnyardgrass” value (barnyardgrass [11]; [20]) of the same compound?
A: 30

Q: What about the “Barnyardgrass plant response rating” value (barnyardgrass [11]; [21]) of the same compound?
A: 75

Q: What about the “Barnyardgrass plant response rating” value (barnyardgrass [11]; [22]) of the same compound?
A: 5

Q: What about the “Morningglory plant response rating (0 to 100 scale)” value (morningglory [12]; [15]) of the same compound?
A: 0

Q: And the “Plant response rating, Morningglory” value (morningglory [12]; [16])?
A: 0

Q: What about the “Morningglory plant response rating” value (morningglory [12]; [17]) of the same compound?
A: 0

Q: And the “Morningglory plant response rating” value (morningglory [12]; [18])?
A: 0

Q: And the “Crabgrass, Large plant response rating (0 to 100 scale)” value (large crabgrass [13]; [15])?
A: 0

Q: And the “Plant response rating, Crabgrass, Large” value (large crabgrass [13]; [16])?
A: 0

Q: What about the “Crabgrass, Large plant response rating” value (large crabgrass [13]; [17]) of the same compound?
A: 0

Q: And the “Crabgrass, Large plant response rating” value (large crabgrass [13]; [18])?
A: 0

Q: And the “Wheat plant response rating” value (wheat; [17])?
A: 30

Q: What about the “Wheat plant response rating” value (wheat; [18]) of the same compound?
A: 30

Q: What about the “Morningglory plant response rating” value (morningglory [14]; [19]) of the same compound?
A: 10

Q: And the “Plant response rating, Morningglory” value (morningglory [14]; [20])?
A: 30

Q: And the “Morningglory plant response rating” value (morningglory [14]; [21])?
A: 0

Q: What about the “Morningglory plant response rating” value (morningglory [14]; [22]) of the same compound?
A: 0
